Laboratory results published in the supplement of paper PMC13380429.

Tests used:
[1] = system: A549-ACE2 infected with SARS-CoV-2; experiment: cell count relative to DMSO; higher = less toxic; details: 24 h
Caco-2 [2] = experiment: cell viability relative to DMSO; higher = less toxic; details: 72 h
Calu-3 [3] = experiment: as above; details: 72 h
HepG2 [4] = experiment: as above; details: 72 h
U2OS [5] = experiment: as above; details: 72 h
Vero E6 [6] = experiment: as above; details: 72 h
[7] = system: A549-ACE2 infected with SARS-CoV-2; experiment: SARS-CoV-2 infection rate relative to DMSO; higher = more infection; details: 24 h
A549-ACE2 = experiment: drug-induced phospholipidosis relative to tamoxifen; higher = more phospholipidosis
[8] = system: A549-ACE2 infected with SARS-CoV-2; experiment: morphology score (similarity to uninfected cells); higher = more like uninfected cells; details: 24 h
Caco-2 [9] = experiment: relative viability EC50 (midpoint between 100% and the lowest measured viability); higher = less toxic; details: 72 h
Calu-3 [10] = experiment: as above; details: 72 h
HepG2 [11] = experiment: as above; details: 72 h
U2OS [12] = experiment: as above; details: 72 h
Vero E6 [13] = experiment: as above; details: 72 h
Caco-2 [14] = experiment: drug sensitivity score (DSS) for viability; higher = more toxic; extreme values may be limits of the assay; details: 72 h
Calu-3 [15] = experiment: as above; details: 72 h
HepG2 [16] = experiment: as above; details: 72 h
U2OS [17] = experiment: as above; details: 72 h
Vero E6 [18] = experiment: as above; details: 72 h

COc1ccc2cc1Oc1ccc(cc1)C[C@H]1c3c(cc4c(c3Oc3cc5c(cc3OC)CCN(C)[C@@H]5C2)OCO4)CCN1C [cepharanthine]
Details | SARS-CoV-2 infection rate, [7] [%] | cell count, [1] [%] | cell viability, Caco-2 [2] [%] | cell viability, Calu-3 [3] [%] | cell viability, HepG2 [4] [%] | cell viability, U2OS [5] [%] | cell viability, Vero E6 [6] [%] | morphology score, [8]
1 nM | – | – | 93.5 | 105 | 99.5 | 95.7 | 95.7 | –
10 nM | – | – | 102 | 107 | 87.8 | 104 | 98.8 | –
100 nM | – | – | 105 | 99.3 | 95.9 | 97 | 96 | –
0.3 µM | 98 | 104 | – | – | – | – | – | 0.04
1000 nM | – | – | 108 | 96.5 | 87.7 | 97.7 | 88.9 | –
3 µM | 75 | 111 | – | – | – | – | – | 0.53
10 µM | 69 | 122 | – | – | – | – | – | 0.79
10000 nM | – | – | 93.1 | 78.7 | 93.7 | 86.5 | 92.9 | –
30 µM | 27 | 104 | – | – | – | – | – | 0.49

drug-induced phospholipidosis [%], A549-ACE2
Details | 0.3 µM | 0.833333 µM | 3.33333 µM | 6.66667 µM | 10 µM | 30 µM
24 h | 9.38 | 2.99 | 21.4 | 34.2 | 49.7 | 34.6
48 h | 6.7 | 5.05 | 19.4 | 29.3 | 35.4 | –
72 h | 6.61 | 3.04 | 15.2 | 24.3 | 32.4 | –

Details | drug sensitivity score | relative viability EC50 [µM]
Caco-2 [9] | – | > 10
Caco-2 [14] | 0 | –
Calu-3 [10] | – | > 10
Calu-3 [15] | 1.2 | –
HepG2 [11] | – | > 10
HepG2 [16] | 0 | –
U2OS [12] | – | > 10
U2OS [17] | 0.3 | –
Vero E6 [13] | – | > 10
Vero E6 [18] | 0 | –

CCN(CC)CCOC(=O)C1(C2CCCCC2)CCCCC1 [dicycloverine]
Details | SARS-CoV-2 infection rate, [7] [%] | cell count, [1] [%] | cell viability, Caco-2 [2] [%] | cell viability, Calu-3 [3] [%] | cell viability, HepG2 [4] [%] | cell viability, U2OS [5] [%] | cell viability, Vero E6 [6] [%] | morphology score, [8]
1 nM | – | – | 99.3 | 93.2 | 95.7 | 97 | 96.1 | –
10 nM | – | – | 95.6 | 104 | 97.6 | 99.3 | 94 | –
100 nM | – | – | 97.2 | 91.8 | 103 | 99.3 | 98 | –
0.3 µM | 94 | 97 | – | – | – | – | – | 0.02
1000 nM | – | – | 98.1 | 91.8 | 98.7 | 108 | 92.6 | –
3 µM | 66 | 112 | – | – | – | – | – | 0.62
10 µM | 46 | 114 | – | – | – | – | – | 0.78
10000 nM | – | – | 102 | 102 | 105 | 104 | 108 | –
30 µM | 34 | 118 | – | – | – | – | – | 0.84

drug-induced phospholipidosis [%], A549-ACE2
Details | 0.3 µM | 0.833333 µM | 3.33333 µM | 6.66667 µM | 10 µM | 30 µM
24 h | 4.66 | 1.82 | 4.06 | 5.19 | 6.77 | 68.6
48 h | 6.16 | 1.46 | 3.34 | 3.8 | 4.6 | 45.9
72 h | 5.16 | -0.588 | 0.239 | 2.22 | 2.64 | 30.3

Details | drug sensitivity score | relative viability EC50 [µM]
Caco-2 [9] | – | > 10
Caco-2 [14] | 0 | –
Calu-3 [10] | – | > 10
Calu-3 [15] | 0 | –
HepG2 [11] | – | > 10
HepG2 [16] | 0 | –
U2OS [12] | – | > 10
U2OS [17] | 0 | –
Vero E6 [13] | – | > 10
Vero E6 [18] | 0 | –
